Test results published in US20220389109A1, “Management of conditions other than multiple sclerosis in ofatumumab-treated patients” (Novartis AG, priority 2019, published 2022).
Read-outs that look alike come from different tables or passages of the source.

Tests used:
[1] = system: IgG, B-cell subtypes, adverse events; details: human, in vivo
Description: MS patients are treated with either ofatumumab or Ocrevus (ocrelizumab). Selected patients having psoriatic arthritis are monitored under a special study program. […] Some of them cannot take a disease-modifying antirheumatic drugs (DMARD) such as • Leflunomide (Arava), • Methotrexate (Otrexup, Rasuvo, Rheumatrex, Trexall) or • Sulfasalazine (Azulfidine).
Thus, they are treated with an immunosuppressant, i.e. one of • Azathioprine (Imuran, Azasan) or • Cyclosporine (Gengraf, Neoral, Sandimmune).

[2] = system: serum immunoglobulin (IgG); details: cited from earlier work
[3] = system: total immunoglobulins; details: over the controlled period of the studies, mainly driven by reduction in IgM; cited from earlier work
[4] = system: total B cells (CD19+ CD45+), CD20+ CD3+ T cells; assay: APLIOS Phase 2 study: B and T-cell subsets in blood by FACS; assay type: in vivo, human; details: 20 mg s.c.
Description: APLIOS was a 12-week, open-label, Phase 2 bioequivalence study. Patients received ofatumumab 20 mg (0.4 mL) s.c. loading doses on Days 1, 7 and 14, and maintenance doses every 4 weeks from Week 4 via a prefilled syringe or an autoinjector pen (SensoReady). Changes in B and T-cell subsets were analysed longitudinally in blood samples of a group of patients using fluorescence-activated cell sorting (FACS).

[5] = system: Immunoglobulin G, Plasma/Serum; set-up: species or system human; details: in vivo
Description: (§1) ASCLEPIOS I and II are double-blind, double-dummy, active comparator-controlled, parallel-group, innovative, adaptive design, multicentre trials. Patients were randomised (1:1) to receive either ofatumumab 20 mg sc injections every 4 weeks (after an initial loading regimen of 20 mg sc doses on Days 1, 7 and 14) or teriflunomide 14 mg orally once daily, for up to 30 months. The studies have flexible durations, with termination occurring in the blinded core treatment epoch according to pre-specified criteria. Patients aged 18-55 years with an Expanded Disability Status Scale (EDSS) score (according to Kurtzke, Neurology. 1983, November; 33(11): 1444-52) of 0-5.5 at screening who experienced ≥1 relapse in the past year or ≥2 relapses in the past 2 years or a positive gadolinium-enhancing (Gd+) MRI scan during the year before randomisation were included.
(§2) Serum IgG/IgM levels were monitored at baseline, Week (W) 4, W12 and every 12 weeks, see FIG. 1. […] Reference is made to FIG. 1.
• At each visit-window, only patients with a value at both Baseline and that visit-window are included.

[6] = set-up: species or system human; details: in vivo
Description: as §1, §2

[7] = system: (total) IgG, B-cell subtypes; details: human, in vivo
Description: Ofatumumab is administered s.c. to RRMS patients. If injection-related reactions occurs, symptomatic treatment is provided. For patients who experienced pain, redness or itching, hydrocortisone cream is applied after the injection to help with itching, redness and swelling. A pain reliever is also be used.

[8] = system: urinary tract infections, B-cell subtypes; details: human, in vivo
From the text: A first group of patients is monitored after an ischemic stroke. A sub-group of the patients are expected to have difficulty with urinary leakage or are not able to empty their bladder completely because of muscle weakness. For these reasons, a catheter will be placed inside the bladder. However, there is an increased risk of urinary tract infections related to the use of a catheter. These infections will be treated with one of • Trimethoprim/sulfamethoxazole (Bactrim, Septra, others), • Fosfomycin (Monurol), • Nitrofurantoin (Macrodantin, Macrobid), • Cephalexin (Keflex) or • Ceftriaxone.
A second group of patients consists of ofatumumab-treated MS patients. A sub-group of the patients develops adverse events, including urinary tract infections. These infections are treated with one of • Trimethoprim/sulfamethoxazole (Bactrim, Septra, others), • Fosfomycin (Monurol), • Nitrofurantoin (Macrodantin, Macrobid), • Cephalexin (Keflex) or • Ceftriaxone.

[9] = system: MS patients; details: cited from earlier work; for reduction in annualized relapse rate compared to teriflunomide: p<0.001
[10] = system: IgM; details: in vivo; cited from earlier work

Substance: ocrelizumab
- adverse events (e.g. infections) after treatment with the immunosuppressant [1]: significantly more adverse events
- reduction of IgG levels ([2]; after two years (96 weeks), pooled OPERA): approx. 5%
- reduction in serum Ig levels, approximate mean rate ([2]; assessed over 5.5 years): 3-4 % per year
- change in total immunoglobulins [3]: decrease in total immunoglobulins

Substance: ofatumumab
- depletion of CD20+ CD3+ T cells [4]: rapidly and potently depleted
- depletion of memory B cells (CD19+ CD45+ CD27+) compared with naïve B cells [4]: more efficient depletion
- median total B-cell levels ([4]; by Day 7 through Day 14 of the loading regimen, maintained for remaining study duration): ≤ 5 cells/μL
- depletion in total B cells (CD19+ CD45+) ([4]; measured on Day 4 and Day 7): rapid and sustained depletion
- IgG decrease as compared with teriflunomide-treated patients [5]: less pronounced and shorter
- turning point at which the trend of decreasing IgG levels reverses [5]: 36 week
- incidence of infections [6]: Advantageous low incidence
- combined immunosuppression or toxicity of ofatumumab and hydrocortisone [7]: no evidence
- follicular B-cell subtype [7]: marked decrease
- marginal zone and germinal center B-cell subtypes [7]: less affected
- level of (total) IgG in patients with injection-related reactions versus without reactions and hydrocortisone ([7]; sc): comparable
- follicular B-cell subtype [8]: marked decrease
- management of urinary tract infections [8]: No significant difference
- marginal zone and germinal center B-cell subtypes [8]: less affected
- follicular B-cell subtype [1]: marked decrease
- level of IgG versus Ocrevus-treated patients [1]: significantly higher
- marginal zone and germinal center B-cell subtypes [1]: less affected
- reduction in annualized relapse rate compared to teriflunomide ([9]; ASCLEPIOS I): 50.5%
- reduction in annualized relapse rate compared to teriflunomide ([9]; ASCLEPIOS II): 58.5%
- suppression of gadolinium (Gd) T1 lesions compared to Aubagio ([9]; in vivo): highly significant suppression
- relative risk reduction in 6-month CDP versus Aubagio ([9]; pre-specified pooled analyses, p=0.012): 32.5%

Substance: rituximab
- effect on IgM levels [10]: depression of IgM levels
